pKd: −log10 of the molar value.
What was measured:
[1] = test system: anti-HRP antibody, anti-hCG antibody, anti-CRP antibody, anti-HBsAg antibody; assay: One-step immunoassay on solid support, release of switching binder on target antigen binding (FIGS. 8A to 8D); parameters: species or system rabbit, mouse, goat; settings: after treatment with target antigen (HRP, hCG, CRP, HBsAg); 10 or 20 μM switching binder; fluorescence
Protocol: With reference to FIG. 8A, anti-HRP antibody was treated and fixed overnight on a solid support at a concentration of 1 μg/ml, and the switching binder 100 of SEQ ID NOs. 1 to 4 were each treated at a concentration of 10 μM (100 μl/well) for 2 hours. At this time, after measuring the fluorescence of the bottom, the antigen HRP as an analyte for an IgG antibody of rabbit was treated at a concentration of 10 μg/ml for 1 hour. With reference to FIG. 8B, anti-HCG antibody was treated and fixed overnight on a solid support at a concentration of 1 μg/ml, and the switching binder 100 of SEQ ID NOs. 1 to 4 were each treated at a concentration of 20 μM (100 μl/well) for 2 hours. At this time, after measuring the fluorescence of the bottom, the antigen HCG as an analyte for an IgG antibody of a mouse was treated at a concentration of 100 μg/ml for 2 hours.
With reference to FIG. 8C, anti-CRP antibody was treated and fixed overnight on a solid support at a concentration of 1 μg/ml, and the switching binder 100 of SEQ ID NOs. 1 to 4 were each treated at a concentration of 20 μM (100 μl/well) for 2 hours. At this time, after measuring the fluorescence of the bottom (A), the antigen […] as an analyte for an IgG antibody of rabbit was treated at a concentration of 10 μg/ml for 1 hour. […] At this time, after measuring the fluorescence of the bottom (A), the antigen HBsAg as an analyte for an IgG antibody of a goat was treated at a concentration of 10 μg/ml for 1 hour.
Referring to FIGS. 8A to 8D, the switching binder 100 was tested using the switching binder of SEQ ID NOs. […] The labeling reaction may be a fluorescence reaction. […]
Referring to FIGS. 8A to 8D, it can be seen that the remaining amount (B) of the switching binder 120 bound to the framework region (FR) was reduced compared to the amount (A) of the switching binder 110 bound to the antibody 10 in all of the switching binder of SEQ ID NO. […] In addition, it can be seen that the amount (C) of the switching binder 130 separated from the framework region (FR) is measured. […]
This is because the amount (A) of the switching binder 110 bound to the antibody 10 is the intensity of fluorescence observed on the surface of the support 30, but the amount (C) of the switching binder 130 separated from the framework region (FR) is the intensity of fluorescence observed in the solution phase. […] According to an embodiment of the present disclosure, as described above, it is possible to quantify the target antigen 20 by the difference between the amount of the switching binder 110 bound to the antibody 10 measured in the pretreatment step (S100) and the amount of the switching binder 120 in the remaining amount bound to the framework region (FR) in the assay step (S300). […]

[2] = test system: anti-influenza B antibody; assay: Bead-based antibody binding one-step immunoassay (FIGS. 9A and 9B); settings: influenza B versus CRP at 10 ng/mL; separated and remaining switching binder quantified
[3] = test system: switching binder of SEQ ID NO. 1 (H1) / switching binder of SEQ ID NO. 4 (L2); assay: FRET test of mutual binding between switching binders H1 and L2 (FIG. 6E)
Excerpt: 1 (H1) and the switching binder of SEQ ID NO. 4 […]. Through this, it can be confirmed that the switching binder of SEQ ID NO. 1 (H1) can interact with the LBR region of the light chain (VL), and the switching binder of SEQ ID NO. 4 (L2) can interact with the HBR region of the heavy chain (VH). Through this property, the switching binder 100 binds to the framework region (FR), and thus the same effect as the interaction between the framework regions (FR) can be obtained.

[4] = molecular target: anti-HRP antibody / HRP; assay: Antigen-binding coefficient of the antibody in solution measured via isolated switching binder (FIGS. 10A to 10D); settings: target antigen HRP, anti-HRP antibody not immobilized; calculated from amount of isolated switching binder; read-out: antigen-binding coefficient (Kd) of the antibody in solution, measured using the switching binder
Excerpt: The pretreatment step (S100″) may include providing the switching binder 100 to an antibody 10 to obtain a mixed solution containing a first conjugate (b1) of the antibody 10 and the switching binder 100, and the switching binder 100 not bound to the antibody 10 (S110); and removing the switching binder 100 not bound to the antibody 10 from the mixed solution (S120). For example, the mixed solution passes through a desalting column to remove the unbound switching binder passing through the desalting column […], and only the first conjugate (b1) passing through the desalting column later can be obtained. The above-described method is exemplary, and various known techniques for separating the first conjugate and the switching binder 100 may be referred to.
Then, as the step of providing an analyte, in the antigen processing step (S200″), the step of separating the first conjugate (b1) from the framework regions (FR, FR) by binding the target antigen 20 to the antibody 10 may be performed. […]
Then, the assay step (S300″) may further include the steps of separating the second conjugate (b2) of the antibody 10 to which the switching binder 130 separated from the antibody 10 and the target antigen 20 are bound (S310); and quantifying the separated switching binder 130 (S320). […] Thereafter, only the separated switching binder 130 may be selectively obtained and quantified through a labeling reaction. At this time, as the concentration of the target antigen 20 increases, the amount of the switching binder 130 separated from the second conjugate (b2) increases, thereby increasing the fluorescence amount of the solution.
In an embodiment, in the assay step (S300″), a test kit that can measure the amount of the switching binder 130 separated according to the increase in the concentration of the target antigen 20 and measure the binding strength of the target antigen 20 to the antibody 10 can be provided. In order to measure the binding strength, the antigen-binding coefficient (Kd) of the antibody 10 may be measured. […]

[5] = test system: switching binder of SEQ ID NO. 2 (H2) / switching binder of SEQ ID NO. 3 (L1); assay: FRET test of mutual binding between switching binders H2 and L1 (FIG. 5E)
Excerpt: 2 (H2) and the switching binder of SEQ ID NO. 3 (L1). Accordingly, it can be confirmed that the switching binder of SEQ ID NO. 2 […] can self-bind and interact with the LAR region of the light chain (VL), and the switching binder of SEQ ID NO. 3 (L1) can self-bind and interact with the HAR region of the heavy chain (VH). Through this, the switching binder 100 having an amino acid sequence extracted from the heavy chain (VH) can bind to the antigen-binding portion 15 including the framework region (FR) of the light chain (VL), and the switching binder 100 having an amino acid sequence extracted from the light chain (VL) can bind to the antigen-binding portion 15 including the framework region (FR) of the heavy chain (VH).

[6] = test system: anti-HRP antibody; assay: SPR analysis of switching binder binding to immobilized antibody (FIG. 7B); settings: 10 and 20 μM peptide
Excerpt: Referring to FIG. 7B, in an embodiment, a result of a surface plasmon resonance (SPR) analysis may be confirmed. Surface Plasmon Resonance (SPR) uses a phenomenon that when a material binds to the surface of a metal thin film such as gold, the refractive index of the metal surface changes. When the light is irradiated, the concentration of the material bound to the metal surface can be measured by examining the resonance angle at which the SPR phenomenon occurs among the reflected light.
Specifically, in order to confirm the SPR signal result, the gold surface was treated overnight with 1 mM mercaptoundecanoic acid (MUA) and surface-modified prior to immobilization of the antibody 10. Carbodiimide/N-Hydroxysuccinimide (EDC/NHS, 0.4 M/0.1 M) was mixed in a 1:1 ratio and treated for 10 minutes to activate functional groups. […] The SPR signal can be measured as an average value by repeating the routine of measuring the SPR signal for 3 minutes while the solution is stopped after flowing 1% Tween-20 washing solution for 1 minute three times.
However, the embodiment is not limited to the embodiment of the present disclosure and may include any method capable of measuring the binding strength of the switching binder 100. […] As a result of peptide treatment at a low concentration of 10 μM, shown in the graph on the left (B1), the SPR signal was calculated as the peptide of SEQ ID NO. […]

Sequence	remaining amount (B) of switching binder bound to framework region compared to amount (A) bound to antibody [1]	bead-based one-step immunoassay feasibility [2]	FRET mutual binding between H1 and L2 [3]	pKd [4]	FRET mutual binding between H2 and L1 [5]	binding to the antibody by SPR [6]
SYWIHWVKQRPGQGLEWIGE [H1, SYWIHWVKQRPGQGLEWIGE]	reduced	possible	mutual binding	–	–	–
VYYCAREPTGTGIYFDVWGK [H2, VYYCAREPTGTGIYFDVWGK]	reduced	–	–	5.54	mutual binding	–
VYYCFQGSHVPFTK [L2, V-Y-Y-C-F-Q-G-S-H-V-P-F-T-K]	reduced	–	mutual binding	5.92	–	binds the most
TYLEWYPQKPGQSPKLLIYK [L1, TYLEWYPQKPGQSPKLLIYK]	reduced	possible	–	6.05	mutual binding	–

Reference: US20230073007A1, “SWITCHING BINDER, PREPARATION METHOD THEREFOR, AND PHARMACEUTICAL COMPOSITION, ASSAY KIT, AND ANTIGEN AND ANTIBODY ASSAY METHOD, EACH USING SAME” (OPTOLANE TECHNOLOGIES INC., priority 2019, published 2023)
